In brackets after ≈: the same amount, converted by molar mass. Like-named read-outs stand apart in the source and are kept apart here.
What was measured:
[1] = test system: chloroquine-sensitive Plasmodium falciparum (NF 54) parasites; test: in vitro antimalarial potency, standard assay; type: cell-based; conditions: for IC50: Plasmodium falciparum, read-out: IC50 (nM), Antimalarial Activities in vitro
[2] = solubility in aqueous pH 7.4 buffer; type: physicochemical; conditions: aqueous pH 7.4 buffer solution, pH 7.4, 25° C.
[3] = test system: normal ectocervical cells HCX (primary normal cervical cells); test: XTT cell viability assay, normal cervical cells; type: cell-based, human
Description: Primary human ectocervical keratinocytes were derived from fresh cervical tissue obtained from the Cooperative Human Tissue Network (CHTN) within 24 hours after removal from patients undergoing hysterectomies for benign non-cervical uterine diseases. Standard overnight dispase treatment and subsequent trypsinization procedures were used to isolate ectocervical epithelial cells, which were cultured in serum-free keratinocyte medium (KSFM) supplemented with bovine pituitary extract and epidermal growth factor according to the manufacturer's protocol (Invitrogen, Carlsbad, Calif.). […]
(§1) Cell viability was determined using 2.5×10^3 cells were plated in triplicates in 96 well tissue culture microplates in the appropriate culture medium and incubated for 24 hours in a humidified atmosphere at 37° C., 5% CO2. […] Cell viability (absorbance) was measured using an ELISA reader at 450 nm with a reference wavelength at 650 nm. Results were calculated as the percentage of cultures exposed to solvent control only. […]
as §1, with “2.5×10^3” for “Cell viability was determined using 2.5×10^3”

[4] = test system: human cervical cancer cell line HeLa; test: XTT proliferation / cell viability assay, HeLa; type: cell-based; conditions: for IC50: Homo sapiens, XTT based assay, read-out: IC50, HeLa cells
GFP strain P. berghei = test: in vivo antimalarial ED50 in mice, single administration SC or PO; conditions: for ED50: Plasmodium berghei, in Mus musculus; for overt toxicity / behavioral modification in the mice: single dose of 3, 10 or 30 mg/kg SC or PO
[5] = test system: malaria-infected mice (GFP strain P. berghei); test: oral in vivo antimalarial activity in malaria-infected mice, three doses over three days
[6] = test system: Plasmodium berghei infected mice; type: in vivo
[7] = test system: panel of 60 human cancer cell lines; test: NCI panel of 60 human cancer cell lines, growth inhibition; type: cell-based; conditions: nanomolar to micromolar concentrations
Text: Cell growth was inhibited in a dose-dependent manner.

[8] = chloroquine-sensitive P. falciparum NF 54, quadruplicates

Q: Which IC50 [1] does the source give for C[C@H]1[C@@H](CCc2cc3c(cc2CC[C@H]2O[C@@H]4O[C@@]5(C)CC[C@H]6[C@H](C)CC[C@@H]([C@H]2C)[C@@]46OO5)COP(=O)(Oc2ccccc2)OC3)O[C@@H]2O[C@@]3(C)CC[C@H]4[C@H](C)CC[C@@H]1[C@@]24OO3 (some centres unmarked) [dimer 9] here?
A: The IC50 was 3.7 nM.

Q: Which results are given for C[C@H]1[C@@H](CCc2cc(C(=O)O)c(C(=O)O)cc2CC[C@H]2O[C@@H]3O[C@@]4(C)CC[C@H]5[C@H](C)CC[C@@H]([C@H]2C)[C@@]35OO4)O[C@@H]2O[C@@]3(C)CC[C@H]4[C@H](C)CC[C@@H]1[C@@]24OO3 [dimer 6]?
A: IC50 [1, 8]: 360 nM; solubility [2]: ~14 mg/mL (≈ 18.5 mM)

Q: With C[C@H]1[C@@H](CCc2cc(CO)c(CO)cc2CC[C@H]2O[C@@H]3O[C@@]4(C)CC[C@H]5[C@H](C)CC[C@@H]([C@H]2C)[C@@]35OO4)O[C@@H]2O[C@@]3(C)CC[C@H]4[C@H](C)CC[C@@H]1[C@@]24OO3 [dimer 7] as the compound, how does the IC50 [1, 8] read?
A: Its IC50 is 0.77 nM.

Q: And the “times more antimalarially active than artemisinin” value ([1]; in vitro, P. falciparum NF 54)?
A: The value was “approximately 10 times”.

Q: And the “toxicity to primary normal cervical cells” value [3]?
A: The value was “without being toxic”.

Q: And the “times more potent than trioxane monomer DHA” value [4]?
A: The value was 110-220 times.

Q: And the IC50 [4]?
A: Its IC50 is 46.5 nM.

Q: And the ED50 (GFP strain P. berghei; po, read-out: PO ED50)?
A: Its ED50 is 2.6 mg/kg.

Q: And the ED50 (GFP strain P. berghei; sc, read-out: SC ED50)?
A: Its ED50 is 0.06 mg/kg.

Q: And the “times more efficacious than sodium artesunate administered PO” value (GFP strain P. berghei; mice, PO)?
A: The value was “approximately 1.5 times”.

Q: What about the “overt toxicity / behavioral modification in the mice” value (GFP strain P. berghei) of the same compound?
A: Its value is “Neither over toxicity nor behavioral modification was observed”.

Q: What does the source list for C[C@H]1[C@H](OC(=O)CCC(=O)[O-])O[C@@H]2O[C@@]3(C)CC[C@H]4[C@H](C)CC[C@@H]1[C@@]24OO3.[Na+] [sodium artesunate]?
A: Avg Mouse Survival (oral, 3 × 10 mg/kg) [5]: 6.7; life of the mice prolonged to ([6]; 30 mg/kg single dose, no drug 7 days): 14 days; malaria parasites killed ([6]; single dose 30 mg/kg, subcutaneous): similarly efficacious; PO ED50 (GFP strain P. berghei; mice, single administration, oral): 4.0 mg/kg; SC ED50 (GFP strain P. berghei; mice, single administration, subcutaneous): 2.2 mg/kg

Q: Which IC50 [1, 8] does the source give for C[C@@H]1CC[C@H]2[C@@H](C)C(=O)O[C@@H]3O[C@]4(C)CC[C@@H]1[C@]32OO4 [Artemisinin, artemisinin, reference compound] here?
A: Its IC50 is 6.6 ± 0.76 nM.

Q: Which IC50 [1, 8] does the source give for C=C(CC[C@H]1O[C@@H]2O[C@@]3(C)CC[C@H]4[C@H](C)CC[C@@H]([C@H]1C)[C@@]24OO3)C(=C)CC[C@H]1O[C@@H]2O[C@@]3(C)CC[C@H]4[C@H](C)CC[C@@H]([C@H]1C)[C@@]24OO3 [dimer 4] here?
A: Its IC50 is 2.9 nM.

Q: With COC(=O)c1cc(CC[C@H]2O[C@@H]3O[C@@]4(C)CC[C@H]5[C@H](C)CC[C@@H]([C@H]2C)[C@@]35OO4)c(CC[C@H]2O[C@@H]3O[C@@]4(C)CC[C@H]5[C@H](C)CC[C@@H]([C@H]2C)[C@@]35OO4)cc1C(=O)OC [dimer 5] as the compound, how does the IC50 [1, 8] read?
A: Its IC50 is 1.6 nM.

Q: What about the “preliminary growth inhibitory activity, selectivity in the panel” value [7] of the same compound?
A: Its value is “extremely selective and highly potent at inhibiting the growth of only non-small cell lung carcinoma HOP-92 cells, melanoma SK-MEL-5 cells, and breast cancer BT-549 cells”.

Q: And the “toxicity to primary normal cervical cells” value [3]?
A: The value was “without being toxic”.

Q: What about the “times more potent than trioxane monomer DHA” value [4] of the same compound?
A: The value was 10-20 times.

Q: What about the IC50 [4] of the same compound?
A: The IC50 was 500 nM.

Q: What about the ED50 (GFP strain P. berghei; sc, read-out: SC ED50) of the same compound?
A: Its ED50 is 0.71 mg/kg.

Q: And the “overt toxicity / behavioral modification in the mice” value (GFP strain P. berghei)?
A: The value was “Neither over toxicity nor behavioral modification was observed”.
